Each compound was assayed against T1, Trifunctional purine biosynthetic protein adenosine-3 (Homo sapiens, UniProt P22102) (assay: GAR Tfase Activity Assay). Details: pH 7.5; 26 °C.
T1 sequence (P22102 whole entry): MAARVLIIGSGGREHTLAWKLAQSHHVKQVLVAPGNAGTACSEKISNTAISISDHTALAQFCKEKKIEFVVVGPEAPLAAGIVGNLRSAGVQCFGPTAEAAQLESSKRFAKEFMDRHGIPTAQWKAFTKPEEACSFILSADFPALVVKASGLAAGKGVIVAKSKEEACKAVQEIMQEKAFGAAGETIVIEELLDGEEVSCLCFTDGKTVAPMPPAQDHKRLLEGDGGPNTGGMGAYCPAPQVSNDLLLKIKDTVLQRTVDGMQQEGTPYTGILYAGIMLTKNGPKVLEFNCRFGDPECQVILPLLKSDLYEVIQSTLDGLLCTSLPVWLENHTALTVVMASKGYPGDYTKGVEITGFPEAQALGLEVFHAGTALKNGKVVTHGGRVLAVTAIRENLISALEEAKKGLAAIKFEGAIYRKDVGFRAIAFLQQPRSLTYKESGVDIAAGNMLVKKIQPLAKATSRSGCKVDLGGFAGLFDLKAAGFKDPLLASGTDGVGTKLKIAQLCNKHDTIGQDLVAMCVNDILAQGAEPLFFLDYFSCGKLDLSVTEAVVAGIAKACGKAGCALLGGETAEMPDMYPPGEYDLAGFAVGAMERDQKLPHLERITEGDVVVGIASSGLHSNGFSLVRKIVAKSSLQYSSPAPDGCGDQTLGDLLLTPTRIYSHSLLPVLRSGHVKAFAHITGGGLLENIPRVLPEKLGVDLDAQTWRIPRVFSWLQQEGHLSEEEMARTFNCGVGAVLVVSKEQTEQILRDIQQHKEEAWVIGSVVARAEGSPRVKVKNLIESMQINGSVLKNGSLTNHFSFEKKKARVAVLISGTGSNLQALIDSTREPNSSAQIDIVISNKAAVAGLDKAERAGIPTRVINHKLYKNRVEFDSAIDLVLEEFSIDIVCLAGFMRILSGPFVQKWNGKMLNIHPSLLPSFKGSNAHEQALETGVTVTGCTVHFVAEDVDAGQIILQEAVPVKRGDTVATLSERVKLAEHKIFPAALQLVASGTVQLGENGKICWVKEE

Ki | SMILES
1.1 µM | Nc1nc(N)c(CCC[C@@H](O)c2ccc(C(=O)NC(CCC(=O)O)C(=O)O)cc2)c(=O)[nH]1 (stereo partly drawn) [2-({4-[(1R)-4-(2,4-diamino-6-oxo-1,6-dihydropyrimidin-5-yl)-1-hydroxybutyl]phenyl}formamido)pentanedioic acid]

Each compound was assayed against Bifunctional purine biosynthesis protein ATIC (Homo sapiens, UniProt P31939) (assay: AICAR Tfase Inhibition Assay). Details: pH 7.4; 26 °C.
Text: Recombinant human AICAR Tfase was used in the inhibition assay. The reaction was monitored at 298 nm by measuring the increase in absorbance corresponding to the formation of THF. The THF was generated in the transfer reaction of the formyl group from cofactor to AICAR to produce 5-formyl-AICAR. Double reciprocal plots were used to determine the Ki values.

Sequence of Bifunctional purine biosynthesis protein ATIC (P31939 whole entry): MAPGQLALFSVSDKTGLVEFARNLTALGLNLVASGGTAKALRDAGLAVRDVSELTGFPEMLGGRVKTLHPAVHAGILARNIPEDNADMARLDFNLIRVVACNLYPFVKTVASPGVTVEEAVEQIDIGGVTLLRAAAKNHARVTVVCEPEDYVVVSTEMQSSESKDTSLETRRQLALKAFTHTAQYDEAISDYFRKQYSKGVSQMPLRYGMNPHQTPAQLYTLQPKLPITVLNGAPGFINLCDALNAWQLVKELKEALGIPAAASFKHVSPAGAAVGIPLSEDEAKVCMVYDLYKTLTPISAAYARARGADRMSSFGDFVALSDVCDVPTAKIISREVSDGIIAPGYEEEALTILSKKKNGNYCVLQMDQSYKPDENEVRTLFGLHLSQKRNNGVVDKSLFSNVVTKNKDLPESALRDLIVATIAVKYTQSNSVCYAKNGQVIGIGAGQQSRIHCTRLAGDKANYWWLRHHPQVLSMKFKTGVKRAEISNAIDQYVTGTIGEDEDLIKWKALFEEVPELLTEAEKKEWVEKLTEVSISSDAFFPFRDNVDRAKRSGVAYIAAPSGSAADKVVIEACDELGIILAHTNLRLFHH

Ki | SMILES
> 100 µM | Nc1nc(N)c(CCC[C@@H](O)c2ccc(C(=O)NC(CCC(=O)O)C(=O)O)cc2)c(=O)[nH]1 (stereo partly drawn) [2-({4-[(1R)-4-(2,4-diamino-6-oxo-1,6-dihydropyrimidin-5-yl)-1-hydroxybutyl]phenyl}formamido)pentanedioic acid]
> 100 µM | CO[C@H](CCCc1c(N)nc(N)[nH]c1=O)c1ccc(C(=O)NC(CCC(=O)O)C(=O)O)cc1 (stereo partly drawn) [2-({4-[(1R)-4-(2,4-diamino-6-oxo-1,6-dihydropyrimidin-5-yl)-1-methoxybutyl]phenyl}formamido)pentanedioic acid]
> 100 µM | Nc1nc(N)c(CCC[C@H](O)c2ccc(C(=O)NC(CCC(=O)O)C(=O)O)cc2)c(=O)[nH]1 (stereo partly drawn) [2-({4-[(1S)-4-(2,4-diamino-6-oxo-1,6-dihydropyrimidin-5-yl)-1-hydroxybutyl]phenyl}formamido)pentanedioic acid]
> 100 µM | CO[C@@H](CCCc1c(N)nc(N)[nH]c1=O)c1ccc(C(=O)NC(CCC(=O)O)C(=O)O)cc1 (stereo partly drawn) [2-({4-[(1S)-4-(2,4-diamino-6-oxo-1,6-dihydropyrimidin-5-yl)-1-methoxybutyl]phenyl}formamido)pentanedioic acid]

SMILES | Ki
CS[C@H](CCCc1c(N)nc(N)[nH]c1=O)c1ccc(C(=O)NC(CCC(=O)O)C(=O)O)cc1 (some centres not stated) [10R (8)] | > 100 µM
CS[C@@H](CCCc1c(N)nc(N)[nH]c1=O)c1ccc(C(=O)NC(CCC(=O)O)C(=O)O)cc1 (some centres not stated) [10S (7)] | > 100 µM

— BindingDB's records for doi:10.1021/jm800555h (The Scripps Research Institute, 2008)
